Earlier results, collected in US11737956B2, “Composition for intracanal medication” (MARUCHI, priority 2016, dated 2023).

Details: very small amount of dissolution in water

[Ca+2].[OH-].[OH-] [calcium hydroxide]
pH of water: 12.4
